Source: patent US20230416249A1, “N-[2-({4-[3-(ANILINO)-4-OXO-4,5,6,7-TETRAHYDRO-1H-PYRROLO[3,2-C]PYRIDIN-2-YL]PYRIDIN-3-YL)OXY)ETHYL]PROP-2-ENAMIDE DERIVATIVES AND SIMILAR COMPOUNDS AS EGFR INHIBITORS FOR THE TREATMENT OF CANCER” (Bayer Aktiengesellschaft, priority 2020, published 2023)

Columns and labels:
[1] = target: T1, mutEGFR (D770_N771insSVD) (Homo sapiens, UniProt P00533, DUP768-770); experiment: Exon20-Mutant-EGFR(D770_N771insSVD) kinase assay (TR-FRET); assay type: biochemical; details: GST-EGFR ins SVD, 2 mM ATP, 15 min pre-incubation
T1 construct: GST-EGFR #3 (SVD between D770 and N771); made in house; host or cells: Sf9 insect cells (baculovirus)
Source text: Inhibitory activity of compounds of the present invention against an Epidermal Growth Factor Receptor (EGFR) with an insertion of the amino acids sequence SVD between D770 and N771 was quantified employing the TR-FRET based kinase activity assay as described in the following paragraphs.
A recombinant fusion protein of N-terminal Glutathion-S-Transferase (GST) and a fragment of human EGFR variant (amino acids R669 to A1210 with insertion of the amino acids sequence SVD between D770 and N771 (“EGFR ins SVD”), expressed in Sf9 insect cells and purified via affinity chromatography using Glutathion Sepharose as described above, was used as a kinase. As substrate for the kinase reaction the biotinylated peptide biotin-Ahx-AEEEEYFELVAKKK (SEQ ID NO: 6) (C-terminus in amide form) was used which can be purchased e.g. form the company Biosynthan GmbH (Berlin-Buch, Germany).
For the assay 50 nl of a 100-fold concentrated solution of the test compound in DMSO was pipetted into either a black low volume 384 well microtiter plate or a black 1536 well microtiter plate (both Greiner Bio-One, Frickenhausen, Germany), 2 μl of a solution of EGFR in aqueous assay buffer [50 mM Hepes pH 7.0, 10 mM MgCl2, 1 mM dithiothreitol, 0.5 mM EGTA, 0.3 mM activated sodium ortho-vanadate, 0.005% (w/v) bovine serum albumin, 0.005% (v/v) Tween-20] were added and the mixture was incubated for 15 min at 22° C. to allow pre binding of the test compounds to the enzyme before the start of the kinase reaction. Then the kinase reaction was started by the addition of 3 μL of a solution of adenosine tri phosphate (ATP, 3.33 mM=>final conc. in the 5 μL assay volume is 2 mM) and substrate (1.67 μM=>final conc. in the 5 μL assay volume is 1 μM) in assay buffer and the resulting mixture was incubated for a reaction time of 30 min at 22° C. The concentration of EGFR was adjusted depending of the activity of the enzyme lot and was chosen appropriate to have the assay in the linear range, typical concentration was 15 pg/μl. The reaction was stopped by the addition of 3 μl of a solution of HTRF detection reagents (83.3 nM streptavidine-XL665 [Cisbio Bioassays, Codolet, France] and 1.67 nM PT66-Tb-Cryptate, a terbium-cryptate labelled anti-phospho-tyrosine antibody from Cisbio Bioassays [instead of the PT66 Tb cryptate PT66 Eu Chelate from Perkin Elmer can also be used]) in an aqueous EDTA-solution (133.3 mM EDTA, 0.2% (w/v) bovine serum albumin in 50 mM HEPES pH 7.5).
The resulting mixture was incubated 1 h at 22° C. to allow the binding of the biotinylated phosphorylated peptide to the streptavidine-XL665 and the PT66-Tb-Cryptate. Subsequently the amount of phosphorylated substrate was evaluated by measurement of the resonance energy transfer from the PT66-Tb-Cryptate to the streptavidine-XL665. Therefore, the fluorescence emissions at 620 nm and 665 nm after excitation at 337 nm were measured in a HTRF reader, e.g. a Pherastar (BMG Labtechnologies, Offenburg, Germany) or a Viewlux (Perkin-Elmer). The ratio of the emissions at 665 nm and at […] was taken as the measure for the amount of phosphorylated substrate. The data were normalised (enzyme reaction without inhibitor=0% inhibition, all other assay components but no enzyme=100% inhibition).

Ba/F3-EGFR-insSVD cells = Ba/F3-EGFR-insSVD cells (Homo sapiens, UniProt P00533, DUP768-770, cells depend on it); experiment: Ba/F3 cell survival assay (Cell Titer-Glo), EGFR-insSVD; assay type: cell-based; details: 48 h, without IL-3, 10 ng/mL EGF; read-out: BA/F3 (insSVD) IC50
Description: (§1) 293T cells from ATCC were transfected with pBABEpuro expression constructs for WT EGFR or EGFR-insSVD, or EGFR-insSVD T790M, and pCL-Eco packaging vector using Fugene-6 transfection reagent from Promega. Plates were incubated at 37° C. for 48 h. Retrovirus was harvested by filtering the media supernatant through a 0.45 μm filter.
(§2) Ba/F3 cells purchased from DSMZ were grown in RPMI+10% FBS+10 ng/mL IL-3 and infected with filtered retroviral supernatant at a 1:2 dilution. Polybrene was added to a concentration of 8 μg/mL, plates were spun for 90 min, and incubated for 16 h at 37° C. 2 μg/mL puromycin was added to the infected cells 24 h after infection and cells were continually grown in the presence of puromycin and 10 ng/mL IL-3. Following stably expressing Ba/F3 cell lines were generated: Ba/F3-EGFR-WT, Ba/F3-EGFR-insSVD, Ba/F3-EGFR-insSVD T790M, (Ba/F3—vector-control).
(§3) For cell survival assays, Ba/F3 cells were grown to a density of 1-2 million cells per mL, spun down and resuspended in media without IL-3, and replated at a concentration 200,000-500,000 cells per mL. The cells ectopically expressing WT EGFR, EGFR-insSVD, or EGFR-insSVD T790M were plated with 10 ng/mL Millipore Culture grade EGF. The cells ectopically expressing pBABEpuro empty vector were plated with 10 ng/mL IL-3.
(§4) 2 days later, cells were plated in 50 μL in a 384 well plate at a concentration of 4000 cells per well for cells assayed in the absence of IL-3 and 2000 cells per well for cells assayed in the presence of IL-3. 100 nL of compound was added to each well using a 100 nL pin head, and plates were incubated at 37° C. for 48 h.
(§5) Cell viability was measured by adding 20 μL of Cell Titer-Glo Luminescent Cell Viability Reagent diluted 1:3 in PBS. Plates were sealed with Perkin Elmer Top-Seal, inverted several times to mix, and immediately centrifuged at 1000 rpm for 2 min. Plates were incubated in low light conditions for 8-10 min and luminescence was measured.

Ba/F3-EGFR-WT cells = Ba/F3-EGFR-WT cells (Homo sapiens, UniProt P00533); experiment: Ba/F3 cell survival assay (Cell Titer-Glo), WT EGFR; assay type: cell-based; details: 48 h, without IL-3, 10 ng/mL EGF; read-out: BA/F3 (wild type) IC50
Description: as §1, §2, §3, §4, §5

[2] = target: Ba/F3-EGFR-L858R T790M cells (Homo sapiens, UniProt P00533, T790M/L858R, cells depend on it); experiment: Ba/F3 cell survival assay (Cell Titer-Glo), EGFR-L858R T790M; assay type: cell-based; details: 48 h, without IL-3, 10 ng/mL EGF; read-out: BA/F3 (L858R T790M) IC50
Description: as §1, with “EGFR-L858R, EGFR-E746_A750del, EGFR-L858R T790M,” for “WT EGFR”, “EGFR-E746_A750del” for “EGFR-insSVD, or EGFR-insSVD”
as §2, with “Ba/F3-EGFR-L858R, Ba/F3-EGFR-E746_A750del, Ba/F3-EGFR-L858R” for “Ba/F3-EGFR-WT, Ba/F3-EGFR-insSVD, Ba/F3-EGFR-insSVD”, “or Ba/F3-EGFR-E746_A750del T790M.” for “(Ba/F3—vector-control).”
as §3, with “EGFR-L858R, EGFR-E746_A750del, EGFR-L858R T790M,” for “WT EGFR, EGFR-insSVD,”, “EGFR-E746_A750del” for “EGFR-insSVD”
as §4, §5

[3] = target: Ba/F3-EGFR-E746_A750del T790M cells (Homo sapiens, UniProt P00533, DEL746-750/T790M, cells depend on it); experiment: Ba/F3 cell survival assay (Cell Titer-Glo), EGFR-E746_A750del T790M; assay type: cell-based; details: 48 h, without IL-3, 10 ng/mL EGF; read-out: BA/F3 (E746_A750del T790M) IC50
Description: as §1, with “EGFR-L858R, EGFR-E746_A750del, EGFR-L858R T790M,” for “WT EGFR”, “EGFR-E746_A750del” for “EGFR-insSVD, or EGFR-insSVD”
as §2, with “Ba/F3-EGFR-L858R, Ba/F3-EGFR-E746_A750del, Ba/F3-EGFR-L858R” for “Ba/F3-EGFR-WT, Ba/F3-EGFR-insSVD, Ba/F3-EGFR-insSVD”, “or Ba/F3-EGFR-E746_A750del T790M.” for “(Ba/F3—vector-control).”
as §3, with “EGFR-L858R, EGFR-E746_A750del, EGFR-L858R T790M,” for “WT EGFR, EGFR-insSVD,”, “EGFR-E746_A750del” for “EGFR-insSVD”
as §4, §5

T1 sequence (P00533 with tags, fused parts or gaps DUP768-770): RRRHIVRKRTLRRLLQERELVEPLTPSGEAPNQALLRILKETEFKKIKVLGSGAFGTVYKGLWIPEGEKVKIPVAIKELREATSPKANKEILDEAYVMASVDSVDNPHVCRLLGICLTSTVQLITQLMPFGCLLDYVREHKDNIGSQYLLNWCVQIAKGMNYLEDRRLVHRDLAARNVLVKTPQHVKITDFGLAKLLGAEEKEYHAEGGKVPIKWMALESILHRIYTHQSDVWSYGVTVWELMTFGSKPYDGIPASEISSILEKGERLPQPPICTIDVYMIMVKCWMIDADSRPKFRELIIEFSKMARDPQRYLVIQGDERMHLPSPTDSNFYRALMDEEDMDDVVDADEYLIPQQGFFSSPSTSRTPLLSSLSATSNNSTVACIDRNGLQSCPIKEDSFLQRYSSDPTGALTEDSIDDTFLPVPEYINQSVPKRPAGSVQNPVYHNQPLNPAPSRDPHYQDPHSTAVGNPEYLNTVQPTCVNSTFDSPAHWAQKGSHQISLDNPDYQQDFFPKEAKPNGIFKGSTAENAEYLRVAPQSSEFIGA
Ba/F3-EGFR-WT cells, sequence (P00533 whole entry, change not shown): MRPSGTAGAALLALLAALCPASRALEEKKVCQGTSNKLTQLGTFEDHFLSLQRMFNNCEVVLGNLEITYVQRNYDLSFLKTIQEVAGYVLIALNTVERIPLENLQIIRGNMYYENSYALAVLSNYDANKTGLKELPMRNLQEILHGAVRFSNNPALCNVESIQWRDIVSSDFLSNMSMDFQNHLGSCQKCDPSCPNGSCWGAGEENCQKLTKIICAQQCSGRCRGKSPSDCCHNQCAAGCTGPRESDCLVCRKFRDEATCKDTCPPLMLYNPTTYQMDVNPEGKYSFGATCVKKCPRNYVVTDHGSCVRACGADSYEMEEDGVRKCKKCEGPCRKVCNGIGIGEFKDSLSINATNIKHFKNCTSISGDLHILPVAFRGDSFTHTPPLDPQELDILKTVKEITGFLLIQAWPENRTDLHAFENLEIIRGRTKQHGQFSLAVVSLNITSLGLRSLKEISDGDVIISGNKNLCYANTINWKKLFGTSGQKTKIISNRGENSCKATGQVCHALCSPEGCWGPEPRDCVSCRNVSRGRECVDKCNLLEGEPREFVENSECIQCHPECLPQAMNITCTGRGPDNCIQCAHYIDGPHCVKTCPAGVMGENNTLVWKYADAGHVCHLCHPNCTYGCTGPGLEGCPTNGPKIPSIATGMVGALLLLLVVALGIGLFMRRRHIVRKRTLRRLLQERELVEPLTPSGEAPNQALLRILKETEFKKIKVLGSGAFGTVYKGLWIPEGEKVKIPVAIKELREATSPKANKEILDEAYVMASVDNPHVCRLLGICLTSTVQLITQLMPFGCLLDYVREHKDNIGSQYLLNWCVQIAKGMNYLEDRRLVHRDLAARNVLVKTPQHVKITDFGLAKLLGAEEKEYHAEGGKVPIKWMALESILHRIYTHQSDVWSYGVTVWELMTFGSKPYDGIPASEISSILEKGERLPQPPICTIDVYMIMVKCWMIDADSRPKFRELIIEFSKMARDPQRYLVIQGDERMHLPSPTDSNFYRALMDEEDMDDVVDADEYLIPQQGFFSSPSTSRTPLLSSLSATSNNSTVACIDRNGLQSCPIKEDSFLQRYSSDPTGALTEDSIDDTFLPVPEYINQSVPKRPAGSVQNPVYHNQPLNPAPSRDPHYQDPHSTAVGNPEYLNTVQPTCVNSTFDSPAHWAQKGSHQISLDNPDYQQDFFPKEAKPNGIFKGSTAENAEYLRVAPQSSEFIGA
Ba/F3-EGFR-L858R T790M cells, sequence (P00533 whole entry T790M/L858R): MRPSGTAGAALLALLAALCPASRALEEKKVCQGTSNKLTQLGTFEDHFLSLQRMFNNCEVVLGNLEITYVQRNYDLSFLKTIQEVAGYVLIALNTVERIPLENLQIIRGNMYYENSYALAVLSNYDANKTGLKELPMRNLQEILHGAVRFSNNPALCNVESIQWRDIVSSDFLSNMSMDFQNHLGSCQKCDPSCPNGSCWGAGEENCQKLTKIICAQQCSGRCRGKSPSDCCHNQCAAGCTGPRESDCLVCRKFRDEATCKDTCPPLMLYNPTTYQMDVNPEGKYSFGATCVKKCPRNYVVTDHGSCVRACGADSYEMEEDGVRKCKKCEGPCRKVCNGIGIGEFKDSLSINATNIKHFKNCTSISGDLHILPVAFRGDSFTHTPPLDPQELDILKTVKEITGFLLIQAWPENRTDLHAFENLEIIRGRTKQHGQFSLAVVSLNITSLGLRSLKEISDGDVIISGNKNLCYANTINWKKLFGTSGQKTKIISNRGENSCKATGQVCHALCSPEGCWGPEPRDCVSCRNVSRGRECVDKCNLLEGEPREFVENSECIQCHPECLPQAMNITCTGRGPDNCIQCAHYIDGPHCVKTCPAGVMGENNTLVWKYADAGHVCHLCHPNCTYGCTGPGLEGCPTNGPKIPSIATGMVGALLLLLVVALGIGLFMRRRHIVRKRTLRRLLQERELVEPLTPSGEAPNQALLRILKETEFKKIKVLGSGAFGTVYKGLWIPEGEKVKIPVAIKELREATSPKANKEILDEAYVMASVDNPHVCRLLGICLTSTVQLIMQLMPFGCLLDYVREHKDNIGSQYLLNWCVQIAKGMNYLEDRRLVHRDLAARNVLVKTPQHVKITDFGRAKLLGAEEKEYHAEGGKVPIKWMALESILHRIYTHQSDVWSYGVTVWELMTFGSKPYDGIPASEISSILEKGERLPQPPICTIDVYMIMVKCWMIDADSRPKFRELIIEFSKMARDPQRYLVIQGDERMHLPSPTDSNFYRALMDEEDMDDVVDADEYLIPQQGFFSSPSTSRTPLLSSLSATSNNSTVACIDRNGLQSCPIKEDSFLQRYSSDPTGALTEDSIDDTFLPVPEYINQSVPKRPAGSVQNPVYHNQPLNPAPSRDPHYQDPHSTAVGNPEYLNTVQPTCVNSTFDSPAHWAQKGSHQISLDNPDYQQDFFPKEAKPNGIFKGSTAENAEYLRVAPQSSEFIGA
Ba/F3-EGFR-E746_A750del T790M cells, sequence (P00533 with tags, fused parts or gaps DEL746-750/T790M): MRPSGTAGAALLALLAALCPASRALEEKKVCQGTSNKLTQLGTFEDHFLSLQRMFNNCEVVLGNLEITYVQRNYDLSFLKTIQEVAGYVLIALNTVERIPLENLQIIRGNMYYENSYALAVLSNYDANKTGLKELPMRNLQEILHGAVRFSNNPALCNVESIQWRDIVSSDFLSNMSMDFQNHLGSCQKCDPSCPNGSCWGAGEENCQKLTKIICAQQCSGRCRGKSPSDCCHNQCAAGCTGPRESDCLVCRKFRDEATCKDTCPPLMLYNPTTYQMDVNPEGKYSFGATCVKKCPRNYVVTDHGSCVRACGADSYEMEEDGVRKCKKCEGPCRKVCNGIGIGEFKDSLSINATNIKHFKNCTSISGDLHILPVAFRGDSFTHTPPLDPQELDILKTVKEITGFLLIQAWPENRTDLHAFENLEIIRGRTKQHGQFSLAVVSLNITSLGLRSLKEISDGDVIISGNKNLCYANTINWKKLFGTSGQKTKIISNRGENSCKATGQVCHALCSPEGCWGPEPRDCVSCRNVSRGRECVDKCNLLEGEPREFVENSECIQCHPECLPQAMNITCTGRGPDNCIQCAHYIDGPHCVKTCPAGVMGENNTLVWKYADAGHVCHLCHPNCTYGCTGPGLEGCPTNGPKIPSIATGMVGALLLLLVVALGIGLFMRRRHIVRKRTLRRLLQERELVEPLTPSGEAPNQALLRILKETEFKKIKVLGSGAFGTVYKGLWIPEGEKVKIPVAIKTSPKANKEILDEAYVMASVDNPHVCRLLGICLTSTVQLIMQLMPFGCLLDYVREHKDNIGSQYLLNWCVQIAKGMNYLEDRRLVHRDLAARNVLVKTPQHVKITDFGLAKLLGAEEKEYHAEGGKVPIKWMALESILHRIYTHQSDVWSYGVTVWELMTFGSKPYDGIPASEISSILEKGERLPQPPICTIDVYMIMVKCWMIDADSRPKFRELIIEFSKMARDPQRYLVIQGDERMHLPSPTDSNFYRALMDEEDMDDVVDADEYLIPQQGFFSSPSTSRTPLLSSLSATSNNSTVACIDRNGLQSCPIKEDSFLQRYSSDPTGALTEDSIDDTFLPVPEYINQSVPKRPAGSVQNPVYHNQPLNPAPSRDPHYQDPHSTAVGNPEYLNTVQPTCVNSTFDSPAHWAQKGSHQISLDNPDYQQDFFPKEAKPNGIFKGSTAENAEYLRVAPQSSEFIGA

Compound	IC50 [1] [nM]	GI50 (Ba/F3-EGFR-insSVD cells) [nM]	GI50 (Ba/F3-EGFR-WT cells) [nM]	GI50 [2] [nM]	GI50 [3] [nM]
COc1c(Cl)cccc1Nc1c(-c2ccncc2OCCN(C)C(=O)/C=C/CN(C)C)[nH]c2c1C(=O)NC1(CCC1)C2 [Example 10, (2E)-N-[2-({4-[3′-(3-chloro-2-methoxyanilino)-4′-oxo-1′,4′,5′,7′-tetrahydrospiro[cyclobutane-1,6′-pyrrolo[3,2-c]pyridin]-2′-yl]pyridin-3-yl}oxy)ethyl]-4-(dimethylamino)-N-methylbut-2-enamide]	3.55	205	1660	> 1000	651
C=CC(=O)N(C)CCOc1cnccc1-c1[nH]c2c(c1Nc1cccc(Cl)c1OC)C(=O)NC1(CCC1)C2 [Example 11, N-[2-({4-[3′-(3-chloro-2-methoxyanilino)-4′-oxo-1′,4′,5′,7′-tetrahydrospiro[cyclobutane-1,6′-pyrrolo[3,2-c]pyridin]-2′-yl]pyridin-3-yl}oxy)ethyl]-N-methylprop-2-enamide]	0.464	12.2	309	198	25.8
C=CC(=O)N(C)CCOc1cnccc1-c1[nH]c2c(c1Nc1cccc(Cl)c1OC)C(=O)NC(C)(C)C2 [Example 12, N-[2-({4-[3-(3-chloro-2-methoxyanilino)-6,6-dimethyl-4-oxo-4,5,6,7-tetrahydro-1H-pyrrolo[3,2-c]pyridin-2-yl]pyridin-3-yl}oxy)ethyl]-N-methylprop-2-enamide]	0.583	17.7	330	276	47.4
C=CC(=O)N(C)CCOc1cnccc1-c1[nH]c2c(c1Nc1ccccc1OC(F)F)C(=O)NCC2 [Example 14, N-(2-{[4-(3-{[2-(difluoromethoxy)phenyl]amino}-4-oxo-4,5,6,7-tetrahydro-1H-pyrrolo[3,2-c]pyridin-2-yl)pyridin-3-yl]oxy}ethyl)-N-methylprop-2-enamide]	0.571	35.4	652	397	29.1
